Source: patent US10512269B2, “Herbicidal compounds” (Syngenta Participations AG, priority 2015, dated 2019)

Legend:
Assay in all cases: B1 Post-emergence efficacy, glasshouse pot test
Assay type in all cases: in vivo
Settings in all cases: post-emergence spray, evaluated after 13 days
[1] = tested on: Amaranthus retoflexus (AMARE)
Method: (§1) Seeds of a variety of test species are sown in standard soil in pots: —Solanum nigrum (SOLNI), Amaranthus retoflexus (AMARE), Setaria faberi (SETFA), Echinochloa crus-galli (ECHCG), Ipomoea hederacea (IPOHE), Lolium perenne (LOLPE). After 8 days cultivation (post-emergence) under controlled conditions in a glasshouse (at 24/16° C., day/night; 14 hours light; 65% humidity), the plants are sprayed with an aqueous spray solution derived from the formulation of the technical active ingredient in acetone/water (50:50) solution containing 0.5% Tween 20 (polyoxyethelyene sorbitan monolaurate, CAS RN 9005-64-5). Compounds are applied at 1000 g/ha and 250 g/ha. The test plants are then grown in a glasshouse under controlled conditions in a glasshouse (at 24/16° C., day/night; 14 hours light; 65% humidity) and watered twice daily. After 13 days, the test is evaluated for the percentage damage caused to the plant. The biological activities are assessed on a five point scale (5=80-100%; 4=60-79%; 3=40-59%; 2=20-39%; 1=0-19%). A blank value in the table is indicative that the compound was not tested on that species.

[2] = tested on: Echinochloa crus-galli (ECHCG)
Method: as §1

[3] = tested on: Ipomoea hederacea (IPOHE)
Method: as §1

Lolium perenne (LOLPE) = tested on: Lolium perenne (LOLPE)
Method: as §1

Setaria faberi (SETFA) = tested on: Setaria faberi (SETFA)
Method: as §1

Solanum nigrum (SOLNI) = tested on: Solanum nigrum (SOLNI)
Method: as §1

Structure (SMILES)	percentage damage caused to the plant, five point scale, AMARE ([1]; 250 g/ha)	percentage damage caused to the plant, five point scale, AMARE ([1]; 1000 g/ha)	percentage damage caused to the plant, five point scale, ECHCG ([2]; 250 g/ha)	percentage damage caused to the plant, five point scale, ECHCG ([2]; 1000 g/ha)	percentage damage caused to the plant, five point scale, IPOHE ([3]; 250 g/ha)	percentage damage caused to the plant, five point scale, IPOHE ([3]; 1000 g/ha)	percentage damage caused to the plant, five point scale, LOLPE (Lolium perenne (LOLPE); 250 g/ha)	percentage damage caused to the plant, five point scale, LOLPE (Lolium perenne (LOLPE); 1000 g/ha)	percentage damage caused to the plant, five point scale, SETFA (Setaria faberi (SETFA); 250 g/ha)	percentage damage caused to the plant, five point scale, SETFA (Setaria faberi (SETFA); 1000 g/ha)	percentage damage caused to the plant, five point scale, SOLNI (Solanum nigrum (SOLNI); 250 g/ha)	percentage damage caused to the plant, five point scale, SOLNI (Solanum nigrum (SOLNI); 1000 g/ha)
C#CCn1c(=O)c(-c2c(Cl)ccc(Cl)c2OCc2cnc(Cl)s2)c(O)c2scnc21 [Compound 1.19, 6-[3,6-dichloro-2-[(2-chlorothiazol-5-yl)methoxy]phenyl]-7-hydroxy-4-prop-2-ynyl-thiazolo[4,5-b]pyridin-5-one]	5 (5=80-100%)	5 (5=80-100%)	5 (5=80-100%)	5 (5=80-100%)	5 (5=80-100%)	5 (5=80-100%)	5 (5=80-100%)	5 (5=80-100%)	5 (5=80-100%)	5 (5=80-100%)	5 (5=80-100%)	5 (5=80-100%)
O=c1c(-c2c(Cl)ccc(Cl)c2OCc2cnc(Cl)s2)c(O)c2scnc2n1CC(F)F [Compound 3.19]	5 (5=80-100%)	5 (5=80-100%)	4 (4=60-79%)	5 (5=80-100%)	5 (5=80-100%)	5 (5=80-100%)	5 (5=80-100%)	5 (5=80-100%)	5 (5=80-100%)	5 (5=80-100%)	5 (5=80-100%)	5 (5=80-100%)
C#CCN1c2ncsc2C(O)=C(c2c(Cl)ccc(Cl)c2OCc2ccccc2)S1(=O)=O [Compound 5.22]	2 (2=20-39%)	1 (1=0-19%)	2 (2=20-39%)	2 (2=20-39%)	2 (2=20-39%)	2 (2=20-39%)	2 (2=20-39%)	2 (2=20-39%)	1 (1=0-19%)	2 (2=20-39%)	1 (1=0-19%)	1 (1=0-19%)
C#CCn1c(=O)c(-c2c(Cl)ccc(Cl)c2OCc2ccccc2)c(O)c2nsnc21 [Compound 9.22, 6-(2-benzyloxy-3,6-dichloro-phenyl)-7-hydroxy-4-prop-2-ynyl-[1,2,5]thiadiazolo[3,4-b]pyridin-5-one]	4 (4=60-79%)	5 (5=80-100%)	2 (2=20-39%)	3 (3=40-59%)	5 (5=80-100%)	5 (5=80-100%)	4 (4=60-79%)	5 (5=80-100%)	2 (2=20-39%)	5 (5=80-100%)	4 (4=60-79%)	5 (5=80-100%)
O=S1(=O)C(c2c(Cl)ccc(Cl)c2OCc2ccccc2)=C(O)c2scnc2N1CC(F)F [Compound 13.22]	3 (3=40-59%)	2 (2=20-39%)	1 (1=0-19%)	2 (2=20-39%)	4 (4=60-79%)	5 (5=80-100%)	2 (2=20-39%)	2 (2=20-39%)	1 (1=0-19%)	2 (2=20-39%)	3 (3=40-59%)	4 (4=60-79%)
C#CCn1c(=O)c(-c2c(F)ccc(Cl)c2OCc2ccccc2)c(O)c2csnc21 [Compound 15.22]	4 (4=60-79%)	5 (5=80-100%)	2 (2=20-39%)	3 (3=40-59%)	4 (4=60-79%)	3 (3=40-59%)	3 (3=40-59%)	4 (4=60-79%)	1 (1=0-19%)	3 (3=40-59%)	4 (4=60-79%)	5 (5=80-100%)
